This experiment addresses T1, ORF15 (polyprenyl phosphoribofuranose synthase, PPPRS) (Citrobacter youngae, UniProt A0A2Z4BV67).
T1 construct: gene ubiA; full-length two-domain integral membrane protein (N-terminal PRP/HAD, C-terminal UbiA-type PPPRS); plasmid-expressed, membranes used as enzyme
T1 sequence (A0A2Z4BV67 1-483): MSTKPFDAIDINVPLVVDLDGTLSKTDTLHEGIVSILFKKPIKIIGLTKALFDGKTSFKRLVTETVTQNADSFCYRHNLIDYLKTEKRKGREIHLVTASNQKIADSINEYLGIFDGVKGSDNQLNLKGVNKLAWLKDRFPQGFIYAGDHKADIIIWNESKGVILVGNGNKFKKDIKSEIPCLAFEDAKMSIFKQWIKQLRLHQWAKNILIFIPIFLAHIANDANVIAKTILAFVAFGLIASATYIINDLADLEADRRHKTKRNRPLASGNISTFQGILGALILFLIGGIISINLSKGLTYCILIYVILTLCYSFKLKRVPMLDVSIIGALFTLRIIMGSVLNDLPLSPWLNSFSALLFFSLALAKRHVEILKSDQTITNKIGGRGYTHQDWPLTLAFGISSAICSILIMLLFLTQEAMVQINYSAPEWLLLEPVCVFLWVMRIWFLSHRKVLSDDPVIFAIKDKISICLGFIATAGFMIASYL
The experiment can be described thus: TLC, MS and NMR of product formed by membranes. It counts as biochemical. The conditions noted are these: […] °C, […] h, expressed membranes.

These results are taken from paper PMC11127046, “Three-component systems represent a common pathway for extracytoplasmic addition of pentofuranose sugars into bacterial glycans” (Proceedings of the National Academy of Sciences of the …, 2024).

As to `CC(C)=CCC/C(C)=C/CC/C(C)=C/COP(=O)(O)O` [compound 1, farnesyl-phosphate], for the setting “[…] acceptor, […] PRPP, […] MgCl2, […] HEPES pH […]”, the “TLC, MS and NMR of product formed by membranes” value was “revealing production of a slower migrating species that was dependent on the presence of PRPP”.

Regarding `O=P(O)(O)OC[C@H]1O[C@H](OP(=O)(O)OP(=O)(O)O)[C@H](O)[C@@H]1O` [phosphoribosylpyrophosphate], the “TLC, MS and NMR of product formed by membranes” value ([…] donor, […] farnesylP acceptor, […] MgCl2, pH […]) was “membranes, PRPP donor, and farnesylP acceptor were analyzed by thin layer chromatography (TLC)”.
